Source: patent US6359145B1, “Imidazole compounds” (Fujisawa Pharmaceutical Co., Ltd., priority 1998, dated 2002)

System: not given
Experiment: not given
Conditions: not given
For N#Cc1cn(C(CO)CCc2ccccc2)cn1 (stereo not drawn), the melting point was 111 to 115 °C.
For NC(=O)c1cn(C(CO)COc2ccccc2)cn1 (stereo not drawn), the melting point was 147.5 to 149.5 °C.
C[C@H](O)[C@@H](CCc1cccc(Cl)c1Cl)n1cnc(C(N)=O)c1 showed a melting point of 70 to 75 °C.
Work on COC(=O)Cc1cccc(CCC(CO)n2cnc(C(N)=O)c2)c1 (stereo not drawn) yielded a melting point of 138.5 to 141 °C.
CCOC(=O)c1cccc(CCC(CO)n2cnc(C(N)=O)c2)c1 (stereo not drawn) showed a melting point of 92 to 95 °C.
Work on NC(=O)c1cn(C(CO)CCc2cccc(C(F)(F)F)c2)cn1 (stereo not drawn) yielded a melting point of 103 to 106 °C.
Compound CCCC(CO)n1cnc(C(N)=O)c1 (stereo not drawn) has a melting point of 160 °C.
CCCCCCC(CO)n1cnc(C(N)=O)c1 (stereo not drawn) gave a melting point of 97.5 to 100.5 °C.
For NC(=O)c1cn(C(CO)c2ccccc2)cn1 (stereo not drawn), the melting point was 147 to 149 °C.
In the case of Cc1ccccc1CC[C@H]([C@H](C)O)n1cnc(C(N)=O)c1, the melting point was 60 to 62 °C.
For Nc1nc(-c2cn([C@H](CO)CCc3ccccc3)cn2)n[nH]1, the melting point was 80 °C (dec.).
NC(=O)c1cn(C(CO)CCc2ccccc2)cn1 (stereo not drawn) [Example 1, 1-(1-Hydroxy-4-phenyl-2-butyl)imidazole-4-carboxamide] gave a melting point of 127 to 129.5 °C.
Cc1ccc(CCC(CO)n2cnc(C(N)=O)c2)cc1 (stereo not drawn) gave a melting point of 138 to 141 °C.

System: TNF-α and IL-10 amounts in plasma of LPS-injected BALB/c mice
Experiment: Endotoxin-induced Cytokine Production
Format: in vivo
Conditions: 320 mg/kg, administered 30 minutes before LPS 0.1 mg/kg i.v.; plasma one hour after LPS; ELISA
Experimental: Endotoxin-induced Cytokine Production
BALB/c mice (male, 7 weeks old) were injected i.v. with 0.1 mg/kg of lipopolysaccharides (LPS) in a total volume of 0.2 ml saline. Heparinized blood samples were taken one hour after LPS injection and plasma was collected by centrifugation. TNF-α (inflammatory cytokine) and IL-10 (anti-inflammatory cytokine) amounts in plasma were assayed by ELISA. Test compounds were administered 30 minutes before LPS injection.
With NC(=O)c1cn(C(CO)CCc2ccccc2)cn1 (stereo not drawn) [Example 1, 1-(1-Hydroxy-4-phenyl-2-butyl)imidazole-4-carboxamide] the “IL-10” value was 137 ± 14 pg/mL and the “TNF-α” value was 3.1 ± 0.5 ng/mL.
